Measured values: PubChem BioAssay (NCI)
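Following 48 hours of exposure in 96-well plates, responses at five concentrations were used to interpolate endpoints linearly. The concentration for 50% growth inhibition is given as GI50. The concentration for full growth arrest is given as TGI.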

Tests used:
Assay in all cases: NCI anticancer screen, dose series, 48 h
[1] = tested on: A549 NSCLC
[2] = tested on: NCI-H226 lung
[3] = tested on: CCRF-CEM leukemia
[4] = tested on: T-47D breast
[5] = tested on: U251 CNS
[6] = tested on: TK-10 renal
[7] = tested on: K-562 leukemia
[8] = tested on: ACHN renal
[9] = tested on: SR leukemia
[10] = tested on: HOP-62 NSCLC
[11] = tested on: LOX IMVI melanoma
[12] = tested on: HT29 colon
[13] = tested on: SK-MEL-5 melanoma
[14] = tested on: SK-MEL-28 melanoma
[15] = tested on: SF-268 CNS
[16] = tested on: SK-MEL-2 melanoma
[17] = tested on: EKVX NSCLC
[18] = tested on: IGROV1 ovarian
[19] = tested on: SN12C renal
[20] = tested on: MDA-MB-231 breast
[21] = tested on: HOP-92 NSCLC
[22] = tested on: OVCAR-3 ovarian
[23] = tested on: 786-0 renal
[24] = tested on: NCI-H23 lung
[25] = tested on: SNB-75 CNS
[26] = tested on: COLO 205 colon
[27] = tested on: UACC-257 melanoma
[28] = tested on: HCT-116 colon
[29] = tested on: NCI-H522 lung
[30] = tested on: RPMI-8226 leukemia
[31] = tested on: MOLT-4 leukemia
[32] = tested on: PC-3 prostate
[33] = tested on: UACC-62 melanoma
[34] = tested on: RXF 393 renal
[35] = tested on: OVCAR-5 ovarian
[36] = tested on: SNB-19 CNS
[37] = tested on: NCI-H460 lung
[38] = tested on: CAKI-1 renal
[39] = tested on: HL-60(TB) leukemia
[40] = tested on: SF-295 CNS
[41] = tested on: HS 578T breast
[42] = tested on: SF-539 CNS
[43] = tested on: HCC-2998 colon
[44] = tested on: DU-145 prostate
[45] = tested on: MALME-3M melanoma
[46] = tested on: UO-31 renal
[47] = tested on: SW-620 colon
[48] = tested on: M14 melanoma
[49] = tested on: OVCAR-4 ovarian
[50] = tested on: SK-OV-3 ovarian
[51] = tested on: A498 renal
[52] = tested on: MDA-MB-435
[53] = tested on: KM12 colon
[54] = tested on: HCT-15 colon

C[C@H]1[C@H](C)CC[C@]2(C(=O)N3CCN(C)CC3)CC[C@]3(C)C(=CC[C@@H]4[C@@]5(C)C/C(=C/c6cccnc6)C(=O)C(C)(C)[C@@H]5CC[C@]43C)[C@H]12
GI50 [1]: 1060 nM
TGI [1]: 2320 nM
GI50 [2]: 1810 nM
TGI [2]: 3770 nM
GI50 [3]: 2000 nM
TGI [3]: 5640 nM
GI50 [4]: 511 nM
TGI [4]: 2160 nM
GI50 [5]: 547 nM
TGI [5]: 1870 nM
GI50 [6]: 1540 nM
TGI [6]: 3040 nM
GI50 [7]: 1670 nM
TGI [7]: > 100000 nM
GI50 [8]: 1230 nM
TGI [8]: 2490 nM
GI50 [9]: 1370 nM
TGI [9]: > 100000 nM
GI50 [10]: 1580 nM
TGI [10]: 3110 nM
GI50 [11]: 1410 nM
TGI [11]: 2880 nM
GI50 [12]: 926 nM
TGI [12]: 2670 nM
GI50 [13]: 1140 nM
TGI [13]: 2540 nM
GI50 [14]: 1400 nM
TGI [14]: 2760 nM
GI50 [15]: 1470 nM
TGI [15]: 3050 nM
GI50 [16]: 1530 nM
TGI [16]: 3080 nM
GI50 [17]: 1590 nM
TGI [17]: 2990 nM
GI50 [18]: 1520 nM
TGI [18]: 3310 nM
GI50 [19]: 1150 nM
TGI [19]: 2650 nM
GI50 [20]: 943 nM
TGI [20]: 2250 nM
GI50 [21]: 446 nM
TGI [21]: 1840 nM
GI50 [22]: 969 nM
TGI [22]: 2360 nM
GI50 [23]: 670 nM
TGI [23]: 2000 nM
GI50 [24]: 1570 nM
TGI [24]: 3190 nM
GI50 [25]: 1080 nM
TGI [25]: 2340 nM
GI50 [26]: 1530 nM
TGI [26]: 4780 nM
GI50 [27]: 1410 nM
TGI [27]: 2910 nM
GI50 [28]: 669 nM
TGI [28]: 1890 nM
GI50 [29]: 328 nM
TGI [29]: 1300 nM
GI50 [30]: 1490 nM
TGI [30]: 4150 nM
GI50 [31]: 1920 nM
TGI [31]: 5750 nM
GI50 [32]: 541 nM
TGI [32]: 1850 nM
GI50 [33]: 1150 nM
TGI [33]: 2520 nM
GI50 [34]: 1240 nM
TGI [34]: 2550 nM
GI50 [35]: 1550 nM
TGI [35]: 2910 nM
GI50 [36]: 956 nM
TGI [36]: 2230 nM
GI50 [37]: 891 nM
TGI [37]: 2450 nM
GI50 [38]: 1220 nM
TGI [38]: 2460 nM
GI50 [39]: 487 nM
TGI [39]: 1860 nM
GI50 [40]: 1600 nM
TGI [40]: 3010 nM
GI50 [41]: 1430 nM
TGI [41]: 5400 nM
GI50 [42]: 1440 nM
TGI [42]: 2780 nM
GI50 [43]: 1280 nM
TGI [43]: 2670 nM
GI50 [44]: 1290 nM
TGI [44]: 2650 nM
GI50 [45]: 1080 nM
TGI [45]: 2450 nM
GI50 [46]: 775 nM
TGI [46]: 2160 nM
GI50 [47]: 924 nM
TGI [47]: 2510 nM
GI50 [48]: 802 nM
TGI [48]: 2300 nM
GI50 [49]: 1070 nM
TGI [49]: 2480 nM
GI50 [50]: 1710 nM
TGI [50]: 3220 nM
GI50 [51]: 1520 nM
TGI [51]: 2920 nM
GI50 [52]: 1130 nM
TGI [52]: 2490 nM
GI50 [53]: 976 nM
TGI [53]: 2560 nM
GI50 [54]: 960 nM
TGI [54]: 2450 nM
